Results published in US12331068B2, “Compositions and methods for inhibiting CD73” (Peloton Therapeutics, Inc., priority 2018, dated 2025).
Read-outs that look alike come from different tables or passages of the source.

Experiments:
Human CD73 = target: T1, Human CD73 (Homo sapiens, UniProt P21589); assay: CD73 Enzyme Assay (EnzChek PNP/MESG kinetic readout of AMP hydrolysis); type: biochemical; details: 0.25 nM hCD73, 25 μM AMP
T1 construct: purchased R&D Systems; host or cells: CHO cells
T1 sequence (P21589 27-549): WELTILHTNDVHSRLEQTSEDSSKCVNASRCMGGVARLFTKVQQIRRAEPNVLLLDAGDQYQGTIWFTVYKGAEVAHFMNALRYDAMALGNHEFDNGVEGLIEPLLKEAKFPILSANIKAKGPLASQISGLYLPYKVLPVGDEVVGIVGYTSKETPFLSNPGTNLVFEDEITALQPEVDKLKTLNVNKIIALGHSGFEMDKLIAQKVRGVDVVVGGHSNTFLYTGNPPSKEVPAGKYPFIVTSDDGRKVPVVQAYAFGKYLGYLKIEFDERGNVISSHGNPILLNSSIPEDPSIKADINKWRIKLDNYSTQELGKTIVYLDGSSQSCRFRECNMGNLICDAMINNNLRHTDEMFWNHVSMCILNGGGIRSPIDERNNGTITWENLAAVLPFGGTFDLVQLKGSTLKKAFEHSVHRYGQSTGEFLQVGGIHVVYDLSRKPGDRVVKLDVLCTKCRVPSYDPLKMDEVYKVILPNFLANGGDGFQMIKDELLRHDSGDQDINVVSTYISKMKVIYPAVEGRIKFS
Method: A compound of the present disclosure (5 μL) was transferred to a 384-well assay plate. The compound was added in a 15 point, 3-fold serial dilution (300 μM to 0.0002 μM) in DMSO. […] The plate was immediately placed in a plate reader (Synergy 2 or Spark 10), and a reading was taken every minute for 10 to 20 minutes in a kinetic run at 360 nm. The linear portion of the curve was used to determine the observed rate (initial velocity). Low signal controls containing 100 μM adenosine 5′-(α,β-methylene) diphosphate and high signal controls containing no compound were measured for each plate.
IC50 values were calculated using Dotmatics template equation for 4-parameter fit. Results are expressed as % inhibition using the following equation: […]

[1] = target: T2, CD73 on U138 human neuroglioma cells (Homo sapiens, UniProt P21589); assay: CD73 Cell-Based Assay (inorganic phosphate from AMP, malachite green); details: AMP substrate, 2 hours at 37° C., read-out: CD73 Cell-Based assay IC50
T2 construct: U138 cells were obtained from ATCC and cultured in DMEM with 10% FBS; host or cells: U138 human neuroglioma cells
T2 sequence (P21589 27-549): T1 sequence (P21589 27-549)
Method: U138 human neuroglioma cells were used in these experiments. U138 cells were obtained from ATCC and cultured in DMEM with 10% FBS. 2500 cells were seeded into 96-well plate with 100 μL of media the day before the experiment. […] After washing, 100 μL of buffer was added to each well, then 100 μL of a mixture of AMP substrate (200 μM) and diluted compound was added to each well. The cells were incubated at 37° C. (with 5% CO2) for 2 hours. 50 μL of supernatant was transferred to a 96-well assay plate and the concentration of inorganic phosphate was determined using malachite green reagent (R&D System; Cat: DY996).

[2] = read-out: CD73 Enzyme Assay IC50

In the case of `N#Cc1c(Cl)nc2c(cnn2[C@@H]2O[C@H](COP(=O)(O)CP(=O)(O)O)[C@@H](O)[C@H]2O)c1NC1CC(F)(F)C1` [Compound 322], the IC50 (Human CD73; [2]) is reported as < 10 nM and the IC50 [1] is reported as < 10 nM.

`CN(c1c(C#N)c(Cl)nc2c1ccn2[C@@H]1O[C@H](COCP(=O)(O)O)[C@@H](O)[C@H]1O)C1CC(F)(F)C1` [Compound 153] was tested, and the IC50 (Human CD73; [2]) was < 10 nM and the IC50 [1] was 10 to 100 nM.

`N#Cc1c(Cl)nc2c(cnn2[C@@H]2O[C@H](COP(=O)(O)CP(=O)(O)O)[C@@H](O)[C@@H]2F)c1N1CCC(F)(F)C1` [Compound 95, (((((2R,3R,4S,5R)-5-(6-chloro-5-cyano-4-(3,3-difluoropyrrolidin-1-yl)-1H-pyrazolo[3,4-b]pyridin-1-yl)-4-fluoro-3-hydroxytetrahydrofuran-2-yl)methoxy)(hydroxy)phosphoryl)methyl)phosphonic acid] was tested, and the IC50 (Human CD73; [2]) was < 10 nM and the IC50 [1] was < 10 nM.

In the case of `N#Cc1c(Cl)nc2c(ccn2[C@@H]2O[C@H](CS(=O)(=O)CP(=O)(O)O)[C@@H](O)[C@H]2O)c1N1CC2CCCC2C1` (stereo partly shown) [Compound 21], the IC50 (Human CD73; [2]) is reported as < 10 nM and the IC50 [1] is reported as < 10 nM.

`N#Cc1c(OCCO)nc2c(ccn2[C@@H]2O[C@H](COCP(=O)(O)O)[C@@H](O)[C@H]2O)c1N1CC2CCCC2C1` (stereo partly shown) [Compound 52] was tested, and the IC50 (Human CD73; [2]) was > 100 nM.

`C[C@H](Nc1c(C#N)c(Cl)nc2c1cnn2[C@@H]1O[C@H](CS(=O)(=O)CP(=O)(O)O)[C@@H](O)[C@H]1O)c1cccc(F)c1` [Compound 180] was tested, and the IC50 (Human CD73; [2]) was < 10 nM and the IC50 [1] was < 10 nM.

In the case of `N#Cc1c(Cl)nc2c(cnn2[C@@H]2O[C@H](CS(=O)(=O)CP(=O)(O)O)[C@@H](O)[C@H]2O)c1N[C@H]1C[C@H](F)C1` [Compound 144, (((((2S,3S,4R,5R)-5-(6-chloro-5-cyano-4-(((1r,3R)-3-fluorocyclobutyl)amino)-1H-pyrazolo[3,4-b]pyridin-1-yl)-3,4-dihydroxytetrahydrofuran-2-yl)methyl)sulfonyl)methyl)phosphonic acid], the IC50 (Human CD73; [2]) is reported as < 10 nM and the IC50 [1] is reported as < 10 nM.

For `C[C@@H](Nc1c(C#N)c(Cl)nc2c1ccn2[C@@H]1O[C@H](COP(=O)(O)CP(=O)(O)O)[C@@H](O)[C@@H]1F)c1ccc(C#N)cc1` [Compound 239], the IC50 (Human CD73; [2]) was < 10 nM and the IC50 [1] was < 10 nM.

For `C[C@H](Nc1c(C#N)c(Cl)nc2c1ncn2[C@@H]1O[C@H](COP(=O)(O)CP(=O)(O)O)[C@@H](O)[C@H]1O)c1ccc(C#N)cc1` [Compound 227], the IC50 (Human CD73; [2]) was < 10 nM and the IC50 [1] was < 10 nM.

For `C[C@@H](Nc1c(C#N)c(Cl)nc2c1cnn2[C@@H]1O[C@H](CS(=O)(=O)CP(=O)(O)O)[C@@H](O)[C@H]1O)c1cccc(F)c1` [Compound 182], the IC50 (Human CD73; [2]) was < 10 nM and the IC50 [1] was < 10 nM.

`C[C@H](Nc1c(C#N)c(Cl)nc2c1ccn2[C@@H]1O[C@H](CS(=O)(=O)CP(=O)(O)O)[C@@H](O)[C@H]1O)c1cccc(C#N)c1` [Compound 190] was tested, and the IC50 (Human CD73; [2]) was < 10 nM and the IC50 [1] was < 10 nM.

With `N#Cc1c(Cl)nc2c(ccn2[C@@H]2O[C@H](COCP(=O)(O)O)[C@@H](O)[C@H]2O)c1N[C@@H]1CCC(F)(F)C1` [Compound 46] the IC50 (Human CD73; [2]) was < 10 nM and the IC50 [1] was < 10 nM.

In the case of `N#Cc1c(Cl)nc2c(ccn2[C@@H]2O[C@H](COCP(=O)(O)O)[C@@H](O)[C@H]2O)c1N1CCC(F)(F)C1` [Compound 13, ((((2R,3S,4R,5R)-5-(6-chloro-5-cyano-4-(3,3-difluoropyrrolidin-1-yl)-1H-pyrrolo[2,3-b]pyridin-1-yl)-3,4-dihydroxytetrahydrofuran-2-yl)methoxy)methyl)phosphonic acid], the IC50 (Human CD73; [2]) is reported as < 10 nM and the IC50 [1] is reported as < 10 nM.

With `C[C@H](Nc1c(C#N)c(Cl)nc2c1ccn2[C@@H]1O[C@H](COP(=O)(O)CP(=O)(O)O)[C@@H](O)[C@H]1O)c1ccc(F)cc1` [Compound 35] the IC50 (Human CD73; [2]) was < 10 nM and the IC50 [1] was < 10 nM.

For `N#Cc1c(Cl)nc2c(cnn2[C@@H]2O[C@H](COCP(=O)(O)O)[C@@H](O)[C@H]2O)c1N1CCC(F)(F)C1` [Compound 62, ((((2R,3S,4R,5R)-5-(6-chloro-5-cyano-4-(3,3-difluoropyrrolidin-1-yl)-1H-pyrazolo[3,4-b]pyridin-1-yl)-3,4-dihydroxytetrahydrofuran-2-yl)methoxy)methyl)phosphonic acid], the IC50 (Human CD73; [2]) was < 10 nM and the IC50 [1] was < 10 nM.

For `N#Cc1nc2c(ccn2[C@@H]2O[C@H](COCP(=O)(O)O)[C@@H](O)[C@H]2O)c(N2CCC(F)(F)C2)c1C#N` [Compound 105], the IC50 (Human CD73; [2]) was < 10 nM and the IC50 [1] was < 10 nM.

For `N#Cc1c(Cl)nc2c(ccn2[C@@H]2O[C@H](CS(=O)(=O)CP(=O)(O)O)[C@@H](O)[C@H]2O)c1NC1CC(F)(F)C1` [Compound 20], the IC50 (Human CD73; [2]) was < 10 nM and the IC50 [1] was < 10 nM.

For `N#Cc1c(Cl)nc2c(ccn2[C@@H]2O[C@H](CS(=O)(=O)CP(=O)(O)O)[C@@H](O)[C@H]2O)c1NC1CC2(CC2)C1` [Compound 159], the IC50 (Human CD73; [2]) was < 10 nM and the IC50 [1] was < 10 nM.

In the case of `CNC(=O)c1c(Cl)nc2c(ccn2C2O[C@H](COCP(=O)(O)O)[C@@H](O)[C@H]2O)c1NC1CCCC1` (stereo partly shown) [Compound 40], the IC50 (Human CD73; [2]) is reported as 10 to 100 nM.

With `N#Cc1c(Cl)nc2c(ncn2[C@@H]2O[C@H](COCP(=O)(O)O)[C@@H](O)[C@H]2O)c1N1CC2CCCC2C1` (stereo partly shown) [Compound 57] the IC50 (Human CD73; [2]) was < 10 nM and the IC50 [1] was < 10 nM.

`N#Cc1c(Cl)nc2c(ccn2[C@@H]2O[C@H](CS(=O)(=O)CP(=O)(O)O)[C@@H](O)[C@H]2O)c1NC1CC2(CCC2)C1` [Compound 158] was tested, and the IC50 (Human CD73; [2]) was < 10 nM and the IC50 [1] was < 10 nM.

`C[C@H](Nc1c(C#N)c(Cl)nc2c1cnn2[C@@H]1O[C@H](CS(=O)(=O)CP(=O)(O)O)[C@@H](O)[C@H]1O)c1cccc(C#N)c1` [Compound 200] was tested, and the IC50 (Human CD73; [2]) was < 10 nM and the IC50 [1] was < 10 nM.

`N#Cc1c(Cl)nc2c(ccn2[C@@H]2O[C@H](COP(=O)(O)CP(=O)(O)O)[C@@H](O)[C@H]2O)c1N1CC2CCCC2C1` (stereo partly shown) [Compound 43] was tested, and the IC50 (Human CD73; [2]) was < 10 nM and the IC50 [1] was < 10 nM.

For `N#Cc1c(Cl)nc2c(cnn2[C@@H]2O[C@H](COCP(=O)(O)O)[C@@H](O)[C@H]2O)c1N1CC2CC2C1` (stereo partly shown) [Compound 71], the IC50 (Human CD73; [2]) was < 10 nM and the IC50 [1] was < 10 nM.

For `N#Cc1nc2c(ccn2[C@@H]2O[C@H](COCP(=O)(O)O)[C@@H](O)[C@H]2O)c(NC2CCCC2)c1Cl` [Compound 101], the IC50 (Human CD73; [2]) was < 10 nM and the IC50 [1] was < 10 nM.

`N#Cc1nc2c(ccn2[C@@H]2O[C@H](CS(=O)(=O)CP(=O)(O)O)[C@@H](O)[C@@H]2F)c(N)c1C#N` [Compound 189] was tested, and the IC50 (Human CD73; [2]) was > 100 nM.

`N#Cc1c(Cl)nc2c(ncn2[C@@H]2O[C@H](COCP(=O)(O)O)[C@@H](O)[C@@H]2F)c1N1CCC(F)(F)C1` [Compound 100] showed an IC50 (Human CD73; [2]) of 10 to 100 nM.

`N#Cc1c(OCCO)nc2c(ccn2[C@@H]2O[C@H](COCP(=O)(O)O)[C@@H](O)[C@H]2O)c1NC1CCCC1` [Compound 2] gave an IC50 (Human CD73; [2]) of 10 to 100 nM.

For `N#Cc1c(Cl)nc2c(cnn2[C@@H]2O[C@H](COCP(=O)(O)O)[C@@H](O)[C@@H]2F)c1N1CCC(F)(F)C1` [Compound 99, ((((2R,3R,4S,5R)-5-(6-chloro-5-cyano-4-(3,3-difluoropyrrolidin-1-yl)-1H-pyrazolo[3,4-b]pyridin-1-yl)-4-fluoro-3-hydroxytetrahydrofuran-2-yl)methoxy)methyl)phosphonic acid], the IC50 (Human CD73; [2]) was > 100 nM.

`N#Cc1c(Cl)nc2c(ccn2[C@@H]2O[C@H](COCP(=O)(O)O)[C@@H](O)[C@@H]2F)c1N1CCC(F)(F)C1` [Compound 98] showed an IC50 (Human CD73; [2]) of 10 to 100 nM.

In the case of `C[C@H](Nc1c(C#N)c(Cl)nc2c1cnn2[C@@H]1O[C@H](COP(=O)(O)CP(=O)(O)O)[C@@H](O)[C@H]1O)c1ccccc1F` [Compound 260], the IC50 (Human CD73; [2]) is reported as < 10 nM.

Work on `Nc1ncnc2c1ncn2[C@@H]1O[C@H](COP(=O)(O)CP(=O)(O)O)[C@@H](O)[C@H]1O` [adenosine 5′-(α,β-methylene) diphosphate, reference compound] yielded an IC50 (Human CD73; low signal control compound, read-out: IC50) of 50 nM.

`C[C@@H](Nc1c(C#N)c(Cl)nc2c1cnn2[C@@H]1O[C@H](COP(=O)(O)CP(=O)(O)O)[C@@H](O)[C@H]1O)c1ccc(F)cc1` [Compound 270] was tested, and the IC50 (Human CD73; [2]) was < 10 nM.

`C[C@@H](Nc1c(C#N)c(Cl)nc2c1cnn2[C@@H]1O[C@H](COP(=O)(O)CP(=O)(O)O)[C@@H](O)[C@H]1O)c1ccc(F)cn1` [Compound 258] was tested, and the IC50 (Human CD73; [2]) was < 10 nM.

`C[C@H](Nc1c(C#N)c(Cl)nc2c1cnn2[C@@H]1O[C@H](COP(=O)(O)CP(=O)(O)O)[C@@H](O)[C@H]1O)c1ccc(F)cn1` [Compound 271] was tested, and the IC50 (Human CD73; [2]) was < 10 nM.
